As a reminder, the MIC is the smallest concentration in the dilution series that meets the test's criterion for growth inhibition. For orientation: CC50 means the concentration that lowers cell viability or growth by half. By MBC is commonly meant the smallest concentration meeting the test's criterion for killing.

The values below come from ChEMBL document CHEMBL2390874, “Synthesis, antibacterial activity and cytotoxicity of new fused pyrazolo[1,5-a]pyrimidine and pyrazolo[5,1-c][1,2,4]triazine derivatives from new 5-aminopyrazoles” (Eur J Med Chem, 2013).

Converted amounts (≈) assume the structure as drawn. The source made the active and inactive calls.

In data set [1] the test system is Bacillus subtilis. Nature of the data set: Antibacterial activity against Bacillus subtilis ATCC 11774 assessed as growth inhibition after 24 hrs by agar diffusion method. In kind it is functional. Background: In agar diffusion tests the substance spreads into inoculated agar from a disc or well.
The subject of data set [2] is Staphylococcus aureus. Nature of the data set: Antibacterial activity against Staphylococcus aureus ATCC 25923 assessed as growth inhibition after 24 hrs by agar diffusion method. It is filed as functional.
A further data set relates to Enterococcus faecalis. Nature of the data set: Antibacterial activity against Enterococcus faecalis ATCC 14506 assessed as growth inhibition at 1 mg/ml after 24 hrs by agar diffusion method. It is filed as functional, organism-based.
In data set [3] the test system is Pseudomonas aeruginosa. Briefly: Antibacterial activity against Pseudomonas aeruginosa ATCC 10145 assessed as growth inhibition by broth dilution method. In kind it is functional. In general terms: In broth dilution the organism is exposed to a series of concentrations in liquid medium.
Data set [4] deals with Staphylococcus epidermidis. Nature of the data set: Antibacterial activity against Staphylococcus epidermidis ATCC 12228 assessed as growth inhibition at 1 mg/ml after 24 hrs by agar diffusion method. It is filed as functional, organism-based.
The test system of data set [5] is Escherichia coli. Briefly: Antibacterial activity against Escherichia coli ATCC 10536 assessed as growth inhibition at 1 mg/ml after 24 hrs by agar diffusion method. In kind it is functional. Conditions: ATCC 10536, 24 h, read-out: DIZ.
Data set [6] in a line: Cytotoxicity against african green monkey vero cells by MTT assay. It is filed as cell-based. Conditions: chlorocebus sabaeus. Background: Formazan colour is commonly taken as a measure of viable cells.
A short description of data set [7]: Selectivity index, ratio of CC50 for african green monkey vero cells to MIC for Staphylococcus aureus ATCC 25923. In kind it is functional.
Data set [8] deals with Escherichia coli. Nature of the data set: Bactericidal activity against Escherichia coli ATCC 10536 by broth dilution method. In kind it is functional.
The subject of data set [9] is Bacillus subtilis. Nature of the data set: Antibacterial activity against Bacillus subtilis ATCC 11774 assessed as growth inhibition at 1 mg/ml after 24 hrs by agar diffusion method. In kind it is functional. The settings on record: ATCC 11774, 24 h, read-out: DIZ.
Data set [10] has as its system Pseudomonas aeruginosa. Briefly: Antibacterial activity against Pseudomonas aeruginosa ATCC 10145 assessed as growth inhibition at 1 mg/ml after 24 hrs by agar diffusion method. In kind it is functional. Conditions: ATCC 10145, 24 h, read-out: DIZ.
Data set [11] relates to Staphylococcus aureus. Nature of the data set: Antibacterial activity against methicillin-resistant Staphylococcus aureus ATCC 43300 assessed as growth inhibition at 1 mg/ml after 24 hrs by agar diffusion method. It is filed as functional, organism-based.
Data set [12] in a line: Selectivity index, ratio of CC50 for african green monkey vero cells to MIC for Pseudomonas aeruginosa ATCC 10145. In kind it is functional.
Data set [13] concerns Bacillus subtilis. Briefly: Bactericidal activity against Bacillus subtilis ATCC 11774 by broth dilution method. It is filed as functional.
Data set [14] has as its system Serratia marcescens. Nature of the data set: Antibacterial activity against Serratia marcescens ATCC 13880 assessed as growth inhibition by broth dilution method. In kind it is functional.
Data set [15] has as its system Serratia marcescens. Briefly: Bactericidal activity against Serratia marcescens ATCC 13880 by broth dilution method. It is filed as functional.
The nature of data set [16]: Selectivity index, ratio of CC50 for african green monkey vero cells to MIC for Serratia marcescens ATCC 13880. It is filed as functional.
In data set [17] the test system is Bacillus subtilis. Briefly: Antibacterial activity against Bacillus subtilis ATCC 11774 assessed as growth inhibition by broth dilution method. In kind it is functional.
Data set [18] has as its system Staphylococcus aureus. Briefly: Antibacterial activity against Staphylococcus aureus ATCC 25923 assessed as growth inhibition by broth dilution method. In kind it is functional.
The nature of data set [19]: Selectivity index, ratio of CC50 for african green monkey vero cells to MIC for Escherichia coli ATCC 10536. It is filed as functional.
Data set [20] concerns Staphylococcus aureus. Nature of the data set: Bactericidal activity against Staphylococcus aureus ATCC 25923 by broth dilution method. It is filed as functional.
Data set [21] concerns Staphylococcus aureus. Nature of the data set: Antibacterial activity against Staphylococcus aureus ATCC 25923 assessed as growth inhibition at 1 mg/ml after 24 hrs by agar diffusion method. It is filed as functional. The settings on record: ATCC 25923, 24 h, read-out: DIZ.
Data set [22] concerns Pseudomonas aeruginosa. Nature of the data set: Bactericidal activity against Pseudomonas aeruginosa ATCC 10145 by broth dilution method. In kind it is functional.
For another data set, the system named is Salmonella typhimurium. Nature of the data set: Antibacterial activity against Salmonella typhimurium ATCC 51812 assessed as growth inhibition at 1 mg/ml after 24 hrs by agar diffusion method. It is filed as functional, organism-based. The settings on record: Salmonella enterica subsp. enterica serovar Typhimurium.
The nature of data set [23]: Selectivity index, ratio of CC50 for african green monkey vero cells to MIC for Bacillus subtilis ATCC 11774. It is filed as functional.
Data set [24] concerns Escherichia coli. Nature of the data set: Antibacterial activity against Escherichia coli ATCC 10536 assessed as growth inhibition by broth dilution method. In kind it is functional.
Data set [25] relates to Serratia marcescens. Nature of the data set: Antibacterial activity against Serratia marcescens ATCC 13880 assessed as growth inhibition at 1 mg/ml after 24 hrs by agar diffusion method. It is filed as functional. Conditions: ATCC 13880, 24 h, read-out: DIZ.
For data set [26], the system named is Serratia marcescens. Briefly: Antibacterial activity against Serratia marcescens ATCC 13880 assessed as growth inhibition at 10 ug after 24 hrs by agar diffusion method. It is filed as functional. Conditions: ATCC 13880, 24 h, read-out: DIZ.
Data set [27] concerns Pseudomonas aeruginosa. Briefly: Antibacterial activity against Pseudomonas aeruginosa ATCC 10145 assessed as growth inhibition at 10 ug after 24 hrs by agar diffusion method. It is filed as functional. Conditions: ATCC 10145, 24 h, read-out: DIZ.
Data set [28] has as its system Escherichia coli. Nature of the data set: Antibacterial activity against Escherichia coli ATCC 10536 assessed as growth inhibition at 10 ug after 24 hrs by agar diffusion method. In kind it is functional. Conditions: ATCC 10536, 24 h, read-out: DIZ.

As to `O=C(N[C@H](CO)[C@H](O)c1ccc([N+](=O)[O-])cc1)C(Cl)Cl` [CHLORAMPHENICOL], the “diameter of the inhibition zone (DIZ)” value in the data set on Bacillus subtilis [1] and with Staphylococcus aureus [2] was 25 mm each time.
Turning to `N#Cc1c(N2CCOCC2)n[nH]c1N`, the “growth inhibition (GI)” value (in the data set on Enterococcus faecalis; in [4]; with Staphylococcus aureus [11]; in the data set on Salmonella typhimurium) was “inactive” throughout. Also, the MIC came to 8000 µg/mL (≈ 41.4 mM) with Pseudomonas aeruginosa [3]; 8000 µg/mL (≈ 41.4 mM) in the data set with Serratia marcescens [14]; 16000 µg/mL (≈ 82.8 mM) with Bacillus subtilis [17]; 16000 µg/mL (≈ 82.8 mM) in the data set with Staphylococcus aureus [18]; 8000 µg/mL (≈ 41.4 mM) in the data set with Escherichia coli [24]. Moreover, the zone of inhibition at 1000 µg/mL in the data set on Escherichia coli [5] was found to be 11 mm; with Bacillus subtilis [9], 6 mm; in the data set on Pseudomonas aeruginosa [10] it was 7 mm; with Staphylococcus aureus [21], 11 mm; in the data set on Serratia marcescens [25], 6 mm. The CC50 in [6] turned out to be 2340 µg/mL (≈ 12.1 mM). The “Selectivity Index” value was 0.29 in data set [7]; 0.29 in data set [12]; 0.29 in [16]; 0.29 in [19]; 0.15 in data set [23]. The minimum bactericidal concentration (MBC) against Escherichia coli [8] is 16000 µg/mL (≈ 82.8 mM); with Bacillus subtilis [13] it was 16000 µg/mL (≈ 82.8 mM); in the data set on Serratia marcescens [15] it was 8000 µg/mL (≈ 41.4 mM); in the data set on Staphylococcus aureus [20] it was > 16000 µg/mL; against Pseudomonas aeruginosa [22], 16000 µg/mL (≈ 82.8 mM).
As for `CN[C@@H]1[C@H](O[C@H]2[C@H](O[C@H]3[C@H](O)[C@@H](O)[C@H](N=C(N)N)[C@@H](O)[C@@H]3N=C(N)N)O[C@@H](C)[C@]2(O)C=O)O[C@@H](CO)[C@H](O)[C@H]1O` [STREPTOMYCIN], the zone of inhibition at 10 µg/disc in the data set on Serratia marcescens [26] was found to be 20 mm; in the data set on Pseudomonas aeruginosa [27] it was 14 mm; in the data set on Escherichia coli [28] it was 13 mm.
`N#Cc1c(N2CCCC2)n[nH]c1N`: the “growth inhibition (GI)” value (with Enterococcus faecalis; in data set [4]; in the data set with Staphylococcus aureus [11]; with Salmonella typhimurium) was “inactive” in each case. Moreover, the MIC in the data set with Pseudomonas aeruginosa [3] was determined as 8000 µg/mL (≈ 45.1 mM); with Serratia marcescens [14], 8000 µg/mL (≈ 45.1 mM); in the data set on Bacillus subtilis [17], 8000 µg/mL (≈ 45.1 mM); in the data set with Staphylococcus aureus [18], 16000 µg/mL (≈ 90.3 mM); in the data set with Escherichia coli [24], 8000 µg/mL (≈ 45.1 mM). Besides, the zone of inhibition at 1000 µg/mL in the data set with Escherichia coli [5] was found to be 9 mm; with Bacillus subtilis [9] it was 9 mm; with Pseudomonas aeruginosa [10], 7 mm; in the data set on Staphylococcus aureus [21] it was 10 mm; in the data set on Serratia marcescens [25], 7 mm. In data set [6], this compound yielded a CC50 of 2500 µg/mL (≈ 14.1 mM). Moreover, the “Selectivity Index” value in data set [7], in data set [12], in data set [16], in data set [19] and in data set [23] was 0.31 each time. Also, the MBC in the data set on Escherichia coli [8] stood at 16000 µg/mL (≈ 90.3 mM); with Bacillus subtilis [13], 8000 µg/mL (≈ 45.1 mM); with Serratia marcescens [15] it was 8000 µg/mL (≈ 45.1 mM); with Staphylococcus aureus [20], 16000 µg/mL (≈ 90.3 mM); against Pseudomonas aeruginosa [22], 16000 µg/mL (≈ 90.3 mM).
